Experimental data taken from patent publication US6416979B1, “5-substituted picolinic acid compounds production by Marasmiellus sp” (Pfizer Inc., priority 1997, dated 2002).

How the values were obtained:
TNF production = experiment: TNF Bioassay (LPS-stimulated human whole blood, TNF titer with L929 cells); assay type: cell-based; details: heparinised human whole blood diluted four-fold, 10 μg/ml LPS, 37° C., 4 h; standard in vitro protocol
Method: (§1) Heparinised human whole blood diluted four-fold with RPMI medium was incubated with 10 μg/ml of Lipopolysaccharide (LPS) in the presence of various concentrations of samples at 37° C. in a humidified atmosphere containing 5% CO2 for 4 h. The TNF titer in the supernatants was determined with L929 cells which were destroyed by TNF quantitatively. L929 cells (2.5×10^4 cells) in 90 μl of E-MEM medium containing 1% fetal calf serum and 0.5 μg/ml of actinomycin D were placed in wells of 96-well microplates (flat-bottom). Ten μl of the supernatants was added to each well and incubated at 37° C. in a humidified atmosphere containing 5% CO2. After 18 h, the plates were rinsed with 0.9% sterile saline and stained for 10 min with 0.4% crystal violet in MeOH. The plates were washed with distilled water and were dried by air. Fifty μl of methanol was added to each well to elute the crystal violet, and the plates were read on a microplate reader (model 3550, BIO-RAD) at 595 nm. TNF production inhibitory activity is calculated by the formula: [formula]

IL-1 production = experiment: IL-1 Bioassay (supernatants of LPS-stimulated human whole blood, specific ELISA); assay type: cell-based; details: heparinised human whole blood diluted four-fold, 10 μg/ml LPS, 37° C., 4 h, standard in vitro protocol
Method: as §1
The supernatants prepared by the same method as TNF bioassay were analyzed IL-1 titer by commercially available specific ELISA system. The plates were read on a microplate reader (model 3550, BIO-RAD) at 490 nm. IL-1 production inhibitory activity is calculated by the formula: [formula]

CC(O)C(O)c1ccc(-c2nnnn2C)nc1 (centres unmarked) [5-(1,2-di-hydroxypropyl)-2-(1-methyl-1H-1,2,3,4-tetrazol-5-yl)pyridine]
TNF biosynthesis inhibitory activities (TNF production): found to have the IL-1 and TNF biosynthesis inhibitory activities | IL-1 biosynthesis inhibitory activities (IL-1 production): found to have the IL-1 and TNF biosynthesis inhibitory activities

CC(O)C(O)c1ccc(-c2nnn(C)n2)nc1 (centres unmarked) [5-(1,2-di-hydroxypropyl)-2-(2-methyl-2H-1,2,3,4-tetrazol-5-yl)pyridine]
TNF biosynthesis inhibitory activities (TNF production): found to have the IL-1 and TNF biosynthesis inhibitory activities | IL-1 biosynthesis inhibitory activities (IL-1 production): found to have the IL-1 and TNF biosynthesis inhibitory activities

CC(O)C(O)c1ccc(C#N)nc1 (centres unmarked) [5-(1,2-dihydroxypropyl)-2-pyridinecarbonitrile]
TNF biosynthesis inhibitory activities (TNF production): found to have the IL-1 and TNF biosynthesis inhibitory activities | IL-1 biosynthesis inhibitory activities (IL-1 production): found to have the IL-1 and TNF biosynthesis inhibitory activities

CC(O)C(O)c1ccc(C(N)=O)nc1 (centres unmarked) [5-(1,2-dihydroxypropyl)-2-pyridinecarboxamide]
TNF biosynthesis inhibitory activities (TNF production): found to have the IL-1 and TNF biosynthesis inhibitory activities | IL-1 biosynthesis inhibitory activities (IL-1 production): found to have the IL-1 and TNF biosynthesis inhibitory activities

CC(O)C(O)c1ccc(C(=O)O)nc1 (centres unmarked) [5-(1,2-dihydroxypropyl)-2-pyridinecarboxylic acid]
TNF biosynthesis inhibitory activities (TNF production): found to have the IL-1 and TNF biosynthesis inhibitory activities | IL-1 biosynthesis inhibitory activities (IL-1 production): found to have the IL-1 and TNF biosynthesis inhibitory activities

CC(O)C(O)c1ccc(C(=O)N(C)C)nc1 (centres unmarked) [5-(1,2-dihydroxypropyl)-N,N-di-methyl-2-pyridinecarboxamide]
TNF biosynthesis inhibitory activities (TNF production): found to have the IL-1 and TNF biosynthesis inhibitory activities | IL-1 biosynthesis inhibitory activities (IL-1 production): found to have the IL-1 and TNF biosynthesis inhibitory activities

COC(=O)c1ccc(C(OC(=O)c2ccc(Br)cc2)C(C)OC(=O)c2ccc(Br)cc2)cn1 (centres unmarked) [methyl 5-(1,2-di-p-bromobenzoyloxypropyl)-2-pyridinecarboxylate]
TNF biosynthesis inhibitory activities (TNF production): found to have the IL-1 and TNF biosynthesis inhibitory activities | IL-1 biosynthesis inhibitory activities (IL-1 production): found to have the IL-1 and TNF biosynthesis inhibitory activities

COC(=O)c1ccc(C(OC(C)=O)C(C)OC(C)=O)cn1 (centres unmarked) [methyl 5-(1,2-diacetoxypropyl)-2-pyridinecarboxylate]
TNF biosynthesis inhibitory activities (TNF production): found to have the IL-1 and TNF biosynthesis inhibitory activities | IL-1 biosynthesis inhibitory activities (IL-1 production): found to have the IL-1 and TNF biosynthesis inhibitory activities

COC(=O)c1ccc(C(O)C(C)O)cn1 (centres unmarked) [methyl 5-(1,2-dihydroxypropyl)-2-pyridinecarboxylate]
TNF biosynthesis inhibitory activities (TNF production): found to have the IL-1 and TNF biosynthesis inhibitory activities | IL-1 biosynthesis inhibitory activities (IL-1 production): found to have the IL-1 and TNF biosynthesis inhibitory activities

COC(=O)c1ccc(C(OC(C)=O)C(C)O)cn1 (centres unmarked) [methyl 5-(1-acetoxy-2-hydroxypropyl)-2-pyridinecarboxylate]
TNF biosynthesis inhibitory activities (TNF production): found to have the IL-1 and TNF biosynthesis inhibitory activities | IL-1 biosynthesis inhibitory activities (IL-1 production): found to have the IL-1 and TNF biosynthesis inhibitory activities
